The values below are quoted from earlier work in patent publication EP3771336A1, “REPELLENT COMPOSITION” (priority 2019, dated 2021).

As usually defined, the EC50 is the midpoint of the concentration-response curve.

In one data set the test system is Daphnia magna. Particulars: aquatic toxicity, daphnids.
For data set [1] the following is noted: at 25°C.

Molecules are shown by their SMILES. In brackets after ≈: the same amount, converted by molar mass.

As to `CCCCCCCCCC(=O)O` [Decanoic acid], in the data set with Daphnia magna, the EC50 was 16 µg/mL (≈ 92.9 µM). Besides, the vapor pressure in data set [1] was 4.88 x 10^-5 kPa.

Turning to `CCCCCCCCCCCC(=O)OC(C)C` [IPL, propan-2-yl dodecanoate], the solubility in water result was “poor solubility in water”.

For the compound `CCCCCCCCCCCCCCCC(=O)OC(C)C` [IPP, propan-2-yl hexadecanoate], the solubility in water result was “immiscible with water”. `CCCCCCCCCCCC(=O)O` [lauric acid, dodecanoic acid]: the solubility in water result is “poorly soluble in water”. In addition, in data set [1], the vapor pressure was 2.13 x 10^-6 kPa.
